Read-outs that look alike come from different tables or passages of the source.
Tests used:
[1] = test system: human platelet suspension; test: Arachidonic acid-induced platelet aggregation in human platelet suspension; format: cell-based; settings: AA 200 μM
Experimental: (§1) Human platelet suspension (PS) was prepared according to the method described previously. Briefly, blood sample, freshly obtained from healthy volunteers who had taken no medications during the preceding 2 weeks, was treated with acid citrate/dextrose (ACD) in a volume ratio of 9:1. After centrifugation at 120 g, 25° C. for 9 min, platelet-rich plasma was transferred into another plastic tube and incubated with heparin (6.4 U/ml) as well as prostaglandin E1 (1 μM). Platelets were spun down by centrifugation at 500 g, 25° C. for 8 min and subsequently washed two times with Tyrode solution (NaH2PO4 0.4 mM; NaCl 136.9 mM; KCl […]; NaHCO3 11.9 mM; CaCl2 2 mM; MgCl2 2.1 mM; glucose 11.1 mM; BSA 3.5 mg/ml; pH 7.35-7.4). The washed platelets were finally suspended in Tyrode's solution and the platelet count was adjusted to 3.75×10^8 platelets/ml. For platelet-rich plasma (PRP) preparation, whole blood was anticoagulated with 1/10 vol of sodium citrate (3.8%, w/v) and centrifuged at 150 g, 25° C. for 9 min.
(§2) Platelet aggregation was measured turbidimetrically with a Lumi-aggregometer (Payton Scientific) at 37° C. under stirring condition (900 rpm). Platelet suspensions were prewarmed to 37° C. for 2 min in a silicone-treated glass cuvette. Nstpbp5185 was added 3 min before the addition of platelet-aggregation inducers. The extent of platelet aggregation was determined by recording the increase of light transmission relative to that of control (maximal aggregation, as 100%) for 6 min after the addition of inducer. The final volume and platelet count for measuring platelet aggregation were 500 μl and 3×10^8/ml, respectively.

[2] = test system: human platelet-rich plasma; test: Collagen-induced platelet aggregation in human platelet-rich plasma; format: cell-based
Experimental: as §1, §2

[3] = test system: human platelet suspension; test: Thromboxane B2 formation in human platelet suspension; format: cell-based
Experimental: Human platelet suspension (3.75×10^8/ml) was preincubated in the presence or absence of nstpbp5185 or aspirin for 3 min before the addition of collagen or AA. Six minutes after the addition of agonist, […] indomethacin and 2 mM EDTA were added to the reaction suspension. After centrifugation in an Eppendorf centrifuge at 14,000 g for 2 min, the thromboxane B2 (TXB2), the stable metabolite of TXA2, levels of the supernatant were measured using a competitive enzyme-immuno assay (EIA) kit according to the instructions of the manufacturer.

mice = test: Pulmonary thromboembolism caused by collagen/epinephrine; format: in vivo; settings: for survival rate after 1 day: n=4
Experimental: (A) Mice were i.v. injected with vehicle (DMSO as control), nstpbp5185 (10 μg/g) or Ctkf6f2 (10 μg/g), then injected with collagen/epinephrine to induce pulmonary embolism model. After the onset of respiratory arrest, lungs were excised. […] Histologic analysis was performed on H&E-stained sections of lung from each mouse. […] (B) Survival rate of mice injected with DMSO as control, nstpbp5185 (10 μg/g) or Ctkf6f2 (10 μg/g) after induction of pulmonary thromboembolism in 30 min, 1 hr and 24 hr (n=4). (C) Representative images of lung isolated after the onset of respiratory arrest, but while the heart was still beating, 0.5 ml of Evans blue solution was injected into the heart. Lungs were excised, and photographed.
Male mice (ICR, 25±3 g) received collagen (0.6 μg/g) plus epinephrine (0.2 μg/g) by tail vein injection. While the respiration is very weak and the heart was still beating, 0.5 mL of Evans blue solution (1% in saline; Sigma) was injected into the heart. Lungs were excised, photographed and fixed with paraldehyde, embedded into paraffin, and sectioned. Histological analysis was performed on hematoxylin and eosin-stained (H&E) sections of lung from each mouse. Nstpbp5185 (10 μg/g) or DMSO vehicle was intravenously given prior to collagen/epinephrine. Mortality after challenge was calculated as percentage of death after injection of collagen/epinephrine, the end time will be […].

rats = test: Gastric damage in rats; format: in vivo; settings: 40 μg g^−1 oral, 3 h
Experimental: Rats (Wistar) were fasted overnight then given aspirin at dose of 150 mg/kg or nstpbp5185 at 40 mg/kg. Both drugs were suspended in 1% carboxymethylcellulose. Three hours later, the rats were sacrificed, the stomach excised, and the extent of hemorrhagic erosions scored by an observer unaware of treatment the rats received. Each lesion larger than 2 mm was counted for comparison. The stomach was fixed in formalin (pH, 7.4) and photographed.

platelet suspension = test: U46619-stimulated platelet protein tyrosine phosphorylation; format: cell-based; settings: 2.5 μM; U46619 1 μM
Experimental: FIG. 19 Effects of nstpbp5185 on U46619-stimulated protein tyrosine phosphorylation in platelet suspension. Platelets were incubated with nstpbp5185 (2.5 μM) or solvent control for 3 min and then stimulated with U46619 (1 μM) for the times indicated (second, s). Then platelets were lysed in SDS buffer and the lysates separated by SDS-PAGE (7.5%-15% acrylamide gradient) under reducing conditions. After electrophoresis, the proteins were transferred to PVDF membranes, and were incubated with several antiphosphotyrosine mAb before detection by using a peroxidase-linked second Ab and detected by chemiluminescence. Data are representative of three separate experiments.
Given the thromboxane receptor-blocking effect of nstpbp5185, the effect of nstpbp5185 on U46619-stimulated signal transduction in platelets was investigated. Stimulation of thromboxane receptors results in phosphorylation of PLCβ2 and activates downstream signaling pathway PKCα, PI3K, Syk, extracellular signal-regulated kinase (ERK) and focal adhesion kinase. The effect of nstpbp5185 on levels of protein tyrosine phosphorylation was examined in platelet cell lysates in different time course. […] In the presence of nstpbp5185 (2.5 μM), the overall pattern of protein tyrosine phosphorylation of signaling molecules during platelet activation was suppressed, including phospholipase Cβ2 (PLCβ2), FAK, PKCα, PI3-kinase, Syk and ERK.

[4] = Homo sapiens, Platelet, collagen 10 μg/ml, read-out: inhibition of TXB2 compared to the control

Cc1ccc(-c2nc3ccc(F)cc3n2Cc2cccc(F)c2)o1 [Ctkf6f2, 6-fluoro-1-(3-fluorobenzyl)-2-(5-methyl-2-furyl)benzimidazole]
IC50 [1]: 3.2 ± 0.99 µM | IC50 ([2]; Homo sapiens, collagen 5 μg/ml, read-out: IC50 collagen-induced aggregation in platelet-rich plasma): 31.3 ± 7.68 µM | inhibition at 0.3 µM ([3]; Homo sapiens, Platelet, collagen 10 μg/ml, 0.3 μM, read-out: inhibition of TXB2 compared to the control): 33% | inhibition at 1 µM [3, 4]: 43.9% | inhibition at 3 µM ([3]; Homo sapiens, Platelet, collagen 10 μg/ml, 3 μM, read-out: inhibition of TXB2 compared to the control): 64.7% | inhibition at 10 µM ([3]; Homo sapiens, Platelet, collagen 10 μg/ml, 10 μM, read-out: inhibition of TXB2 compared to the control): 73.5% | emboli in lung sections compared with 5185 (mice; 10 μg/g i.v.): smaller emboli | survival rate after 1 day (mice; 10 μg/g i.v.): 100%

Cc1ccc(-c2nc3ccccc3n2Cc2ccccc2)o1 [Example 6, 1-Benzyl-2-(5-methyl-2-furyl)benzimidazole]
IC50 [1]: 3.9 ± 0.2 µM | IC50 ([2]; human PRP, data not shown, read-out: IC50 collagen-induced platelet aggregation in human PRP): 64.2 ± 2.5 µM | inhibition at 1 µM [3, 4]: 52.6% | TXB2 generation of AA-stimulated platelets ([3]; arachidonic acid 200 μM, 0.7, 2 and 6 μM): concentration-dependently inhibited | TXB2 generation of collagen-stimulated platelets ([3]; collagen 10 μg/ml, 0.7, 2 and 6 μM): concentration-dependently inhibited | gastric lesions (>2 mm) (rats): did not cause significant lesion | survival rate after 1 day (mice; 10 μg/g i.v.): 100% | mortality after collagen/epinephrine within 1 hr (mice; 5 and 10 μg g^−1, intravenous injection): completely protected mice from death | microemboli in lung sections (mice; nstpbp5185-treated mice vs control): few microemboli | protein tyrosine phosphorylation of signaling molecules (PLCβ2, FAK, PKCα, PI3-kinase, Syk, ERK) (platelet suspension): suppressed
